Experimental data from ChEMBL document CHEMBL3817795, “Identification and optimisation of a series of N-(4-anilino-2-pyridyl)acetamide activin receptor-like kinase 1 (ALK1) inhibitors” (Medchemcomm, 2016).
≈ marks a conversion by molar mass, not a printed value.

Legend:
[1] = Lipophilicity, log D of the compound at pH 7.4; format: physicochemical; details: buffer
[2] = Solubility of the compound; format: physicochemical

O=C(Nc1cc(Nc2ccccc2)ccn1)C1CC1
logD [1]: 3.3

CC(=O)Nc1cc(Nc2c(Cl)ccc3c2OCO3)ccn1
logD [1]: 2.7

O=C(Nc1cc(Nc2c(Cl)ccc3c2OCO3)ccn1)C1CC1
logD [1]: 3.3
solubility [2]: 46 µM (≈ 15.3 µg/mL)
